Like-named read-outs stand apart in the source and are kept apart here.
What was measured:
Mino cells = experiment: Inhibition of cell proliferation of Mino cells (MTS, 3 days); assay type: cell-based; details: Homo sapiens, MINO
Procedure, shortened: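 Mino cells in RPMI-1640 with 15% FBS were seeded at 8000 cells/well and treated with 5-fold compound dilutions (final DMSO 0.2%) for 3 days at 37° C. Viability was measured by MTS as OD490−OD690 after 3-4 h. IC50 was fitted from inhibition relative to DMSO and blank, in three repeat experiments.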

MM.1S cells = experiment: Effect of the compound on MM.1S cell proliferation (MTS, 7 days); assay type: cell-based; details: Homo sapiens, MM1.S
Procedure, shortened: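 MM.1S cells (20,000/well in RPMI 1640 with 10% FBS) were exposed to a 5-step compound dilution series (0.2% DMSO final) for 7 days at 37 °C, 5% CO2. MTS readout used OD490 minus OD690 after 3–4 h, and IC50 was fitted from three independent repeats.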

MV-4-11 cells = experiment: Inhibition of MV-4-11 cell proliferation (MTS, 7 days); assay type: cell-based; details: Homo sapiens
Procedure, shortened: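 Measured at 2,000 cells per well in IMDM with 10% FBS, five-fold compound dilutions, 0.2% DMSO final, 7 days at 37° C, 5% CO2. MTS added for 3-4 hours; signal as OD490-OD690. IC50 from three repeated experiments, each in triplicate.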

[1] = Mouse pharmacokinetic experiment, oral gavage; assay type: in vivo; details: ICR mice, female, oral gavage 20 mg/kg, plasma
Description: Mouse Pharmacokinetic Experimental Scheme ICR mice, female, 18-22 g, randomly divided into groups with 4 mice per group. The test compounds were administered by oral gavage at a dose volume of 10 mL/kg. The oral solution was prepared using DMSO/PEG-400/water (5:30:65, v/v/v). Mice were fasted for 12 hours prior to the experiment with free access to water. After drug administration, they were allowed to eat uniformly at 2 hours post-dose. The test compounds (20 mg/kg) were orally administered to 4 mice. Blood samples (50 μL) were collected from the orbital vein at the following time points: 5 min, 15 min, 30 min, 1 h, 2 h, 4 h, 6 h, and 24 h. The blood was centrifuged at 12,000 rpm for 2 minutes to separate plasma, which was then stored at −20° C. for blood concentration measurement.

[2] = 72 h, 3 days, MTS, Table 2, read-out: Mino Cells Inhibition Activity IC50
[3] = 168 h, 7 days, MTS, Table 1, read-out: MM.1S Cells Inhibition Activity IC50
[4] = MV4-11, 168 h, 7 days, MTS, Table 3, read-out: MV-4-11 Cells Inhibition Activity IC50
[5] = Table 4, read-out: Inhibitory Activity of Compounds on Cell Proliferation Mino IC50
[6] = Table 4, read-out: Inhibitory Activity of Compounds on Cell Proliferation MM.1S IC50
[7] = MV4-11, Table 4, values in nM, read-out: Inhibitory Activity of Compounds on Cell Proliferation MV-4-11 IC50
[8] = MV4-11, Table 4, values in μM, read-out: Inhibitory Activity of Compounds on Cell Proliferation MV-4-11 IC50
[9] = MV4-11, positive compounds, read-out: IC50 in MV-4-11 acute leukemia cells

Row | SMILES | IC50 (Mino cells; [2]) [nM] | IC50 (MM.1S cells; [3]) [nM] | IC50 (MV-4-11 cells; [4]) [nM] | AUC(0-t) [1] [ng·h/mL] | Cmax [1] [ng/mL] | IC50 (Mino cells; [5]) [nM] | IC50 (MM.1S cells; [6]) [nM] | IC50 (MV-4-11 cells; [7]) [nM] | IC50 (MV-4-11 cells; [8]) [nM] | IC50 (MV-4-11 cells; [9]) [nM]
1 | O=C1CCC(N2C(=O)c3cccc(NCc4cnc(-c5ccccc5)o4)c3C2=O)C(=O)N1 (stereo not shown) [Example 22] | < 60 | < 15 | < 1000 | > 10000 | > 2000 |  |  |  |  | 
2 | O=C1CCC(N2C(=O)c3cccc(NCc4cnc(-c5ccc(C(F)(F)F)cc5)s4)c3C2=O)C(=O)N1 (stereo not shown) [Example 37] | < 60 | < 15 | < 1000 | > 10000 | > 2000 |  |  |  |  | 
3 | [2H]c1c([2H])c([2H])c(-c2ncc(CNc3cccc4c3C(=O)N(C3CCC(=O)NC3=O)C4=O)o2)c([2H])c1[2H] (stereo not shown) [Example 45] | < 60 | 15 to 30 | < 1000 | > 10000 | > 2000 |  |  |  |  | 
4 | O=C1CCC(N2C(=O)c3cccc(NCc4cnc(-c5ccc(OC6CC6)cc5)o4)c3C2=O)C(=O)N1 (stereo not shown) [Example 51, 4-(((2-(4-Cyclopropoxyphenyl)oxazol-5-yl)methyl)amino)-2-(2,6-Dioxopiperidin-3-yl)isoindolin-1,3-dione] | < 60 | < 15 | < 1000 | > 10000 | > 2000 |  |  |  |  | 
5 | COCCOc1ccc(-c2ncc(CNc3cccc4c3C(=O)N(C3CCC(=O)NC3=O)C4=O)s2)cc1 (stereo not shown) [Example 104] | > 120 | 15 to 30 | < 1000 |  |  |  |  |  |  | 
6 | O=C1CCC(N2C(=O)c3cccc(NCc4cnc([C@H]5CC[C@@H](Cc6ccc(F)cc6)CC5)o4)c3C2=O)C(=O)N1 (stereo partly drawn) [Example 105, 2-(2,6-Dioxopiperidine-3-yl)-4-(((2-((1S,4S)-4-(4-Fluorobenzyl)cyclohexyl)oxazol-5-yl)methyl)amino)isoindoline-1,3-dione] | > 120 | > 150 | 1000 to 20000 |  |  |  |  |  |  | 
7 | O=C1CCC(N2C(=O)c3cccc(NCc4cnc([C@H]5CC[C@H](Cc6ccc(F)cc6)CC5)o4)c3C2=O)C(=O)N1 (stereo partly drawn) [Example 106, 2-(2,6-Dioxopiperidine-3-yl)-4-(((2-((1R,4R)-4-(4-Fluorobenzyl)cyclohexyl)oxazol-5-yl)methyl)amino)isoindoline-1,3-dione] | > 120 | 30 to 150 | < 1000 |  |  |  |  |  |  | 
8 | CC(C)(C)C(=O)N1CCC(c2ncc(CNc3cccc4c3CN(C3CCC(=O)NC3=O)C4=O)o2)CC1 (stereo not shown) [Example Ctrl-1, 3-(1-oxo-4-(((2-(1-pivaloylpiperidin-4-yl)oxazol-5-yl)methyl)amino)isoindolin-2-yl)piperidine-2,6-dione, reference compound] |  |  |  |  |  | > 20000 | 420 | 14400 |  | 
9 | O=CN(Cc1cnc(-c2ccc(Cl)cc2)o1)c1cccc2c1C(=O)N(C1CCC(=O)NC1=O)C2=O (stereo not shown) [Example Ctrl-2, N-((2-(4-chlorophenyl)oxazol-5-yl)methyl)-N-(2-(2,6-dioxopiperidin-3-yl)-1,3-dioxoisoindolin-4-yl) formamide, reference compound] |  |  |  |  |  | > 120 | > 30 |  | 1000 to 20000 | 
10 | CN(Cc1cnc(-c2ccc(Cl)cc2)o1)c1cccc2c1C(=O)N(C1CCC(=O)NC1=O)C2=O (stereo not shown) [Example Ctrl-3, 4-(((2-(4-chlorophenyl)oxazol-5-yl)methyl)(methyl)amino)-2-(2,6-dioxopiperidin-3-yl)isoindoline-1,3-dione, reference compound] |  |  |  |  |  | > 120 | > 30 |  | 1000 to 20000 | 
11 | O=C1CCC(N2Cc3c(NCc4cn(-c5ccc(Cl)cc5)nn4)cccc3C2=O)C(=O)N1 (stereo not shown) [Example Ctrl-4, reference compound] |  |  |  |  |  | > 5000 | > 15 | > 20000 |  | 
12 | Nc1cccc2c1CN(C1CCC(=O)NC1=O)C2=O (stereo not shown) [Lenalidomide, reference compound] | > 120 | 30 to 150 | > 20000 |  |  |  |  |  |  | > 20000
13 | Nc1cccc2c1C(=O)N(C1CCC(=O)NC1=O)C2=O (stereo not shown) [Pomalidomide, reference compound] | > 120 | 30 to 150 | > 20000 |  |  |  |  |  |  | > 20000
14 | O=C1CCC(N2Cc3c(NCc4cnc(-c5ccc(OC(F)(F)F)cc5)o4)cccc3C2=O)C(=O)N1 (stereo not shown) [Prior Art Disclosed Compound-1, reference compound] |  |  |  |  |  | > 4800 | > 20 | > 20000 |  | 
15 | O=C1CCC(N2Cc3c(CCc4cnc(-c5ccc(OC(F)(F)F)cc5)o4)cccc3C2=O)C(=O)N1 (stereo not shown) [Prior Art Disclosed Compound-2, reference compound] |  |  |  |  |  | 800 | 73 | > 20000 |  | 
16 | O=C1CCC(N2C(=O)c3cccc(OCc4cn(-c5ccc(OC(F)(F)F)cc5)nn4)c3C2=O)C(=O)N1 (stereo not shown) [Prior Art Disclosed Compound-3, reference compound] |  |  |  |  |  | 680 | > 20000 | > 20000 |  | 
17 | O=C1CCC(N2Cc3c(OCC4CCN(c5ccc(OC(F)(F)F)cc5)CC4)cccc3C2=O)C(=O)N1 (stereo not shown) [Prior Art Disclosed Compound-4, reference compound] |  |  |  |  |  | 7500 | > 41 | > 10000 |  | 

From patent US20250270202A1, “SUBSTITUTED 4-AMINOISOINDOLINE COMPOUND, PREPARATION METHOD THEREFOR, PHARMACEUTICAL COMPOSITION THEREOF, AND USE THEREOF” (SHANGHAI INSTITUTE OF MATERIA MEDICA, CHINESE ACADEMY OF …, priority 2022, published 2025)
